Measured values as given in PubChem BioAssay (NCI).
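Five concentrations, 48 hours, 96-well plates. TGI is the concentration that stops growth completely.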

Tests used:
Assay in all cases: NCI tumour cell line growth inhibition, 48 h
786-0 renal = tested on: 786-0 renal
A498 renal = tested on: A498 renal
A549 NSCLC = tested on: A549 NSCLC
ACHN renal = tested on: ACHN renal
BT-549 breast = tested on: BT-549 breast
CAKI-1 renal = tested on: CAKI-1 renal
CCRF-CEM leukemia = tested on: CCRF-CEM leukemia
COLO 205 colon = tested on: COLO 205 colon
EKVX NSCLC = tested on: EKVX NSCLC
HCT-116 colon = tested on: HCT-116 colon
HCT-15 colon = tested on: HCT-15 colon
HL-60(TB) leukemia = tested on: HL-60(TB) leukemia
HOP-62 NSCLC = tested on: HOP-62 NSCLC
HOP-92 NSCLC = tested on: HOP-92 NSCLC
HS 578T breast = tested on: HS 578T breast
HT29 colon = tested on: HT29 colon
IGROV1 ovarian = tested on: IGROV1 ovarian
K-562 leukemia = tested on: K-562 leukemia
KM12 colon = tested on: KM12 colon
LOX IMVI melanoma = tested on: LOX IMVI melanoma
M14 melanoma = tested on: M14 melanoma
MALME-3M melanoma = tested on: MALME-3M melanoma
MCF7 breast = tested on: MCF7 breast
MDA-MB-231 breast = tested on: MDA-MB-231 breast
MDA-MB-435 = tested on: MDA-MB-435
MDA-N = tested on: MDA-N
MOLT-4 leukemia = tested on: MOLT-4 leukemia
NCI-H226 lung = tested on: NCI-H226 lung
NCI-H23 lung = tested on: NCI-H23 lung
NCI-H460 lung = tested on: NCI-H460 lung
NCI/ADR-RES ovarian = tested on: NCI/ADR-RES ovarian
OVCAR-3 ovarian = tested on: OVCAR-3 ovarian
OVCAR-4 ovarian = tested on: OVCAR-4 ovarian
OVCAR-5 ovarian = tested on: OVCAR-5 ovarian
OVCAR-8 ovarian = tested on: OVCAR-8 ovarian
PC-3 prostate = tested on: PC-3 prostate
RXF 393 renal = tested on: RXF 393 renal
SF-295 CNS = tested on: SF-295 CNS
SF-539 CNS = tested on: SF-539 CNS
SK-MEL-2 melanoma = tested on: SK-MEL-2 melanoma
SK-MEL-28 melanoma = tested on: SK-MEL-28 melanoma
SK-MEL-5 melanoma = tested on: SK-MEL-5 melanoma
SK-OV-3 ovarian = tested on: SK-OV-3 ovarian
SN12C renal = tested on: SN12C renal
SNB-19 CNS = tested on: SNB-19 CNS
SNB-75 CNS = tested on: SNB-75 CNS
SR leukemia = tested on: SR leukemia
SW-620 colon = tested on: SW-620 colon
TK-10 renal = tested on: TK-10 renal
U251 CNS = tested on: U251 CNS
UACC-257 melanoma = tested on: UACC-257 melanoma
UACC-62 melanoma = tested on: UACC-62 melanoma
UO-31 renal = tested on: UO-31 renal
DU-145 prostate = tested on: DU-145 prostate
NCI-H522 lung = tested on: NCI-H522 lung
RPMI-8226 leukemia = tested on: RPMI-8226 leukemia
SF-268 CNS = tested on: SF-268 CNS

CC1CCC2C(C)(C)CC3(C)CCC1C23O (centres undefined)
TGI (786-0 renal): 29 µM
TGI (A498 renal): 36.7 µM
TGI (A549 NSCLC): 37 µM
TGI (ACHN renal): 29.7 µM
TGI (BT-549 breast): 32 µM
TGI (CAKI-1 renal): 27.2 µM
TGI (CCRF-CEM leukemia): 21.7 µM
TGI (COLO 205 colon): 33.2 µM
TGI (EKVX NSCLC): 28.3 µM
TGI (HCT-116 colon): 27.9 µM
TGI (HCT-15 colon): 30.6 µM
TGI (HL-60(TB) leukemia): 5.57 µM
TGI (HOP-62 NSCLC): 30.6 µM
TGI (HOP-92 NSCLC): 26.4 µM
TGI (HS 578T breast): 30.3 µM
TGI (HT29 colon): 29.9 µM
TGI (IGROV1 ovarian): 29.4 µM
TGI (K-562 leukemia): 40.9 µM
TGI (KM12 colon): 29.1 µM
TGI (LOX IMVI melanoma): 28.9 µM
TGI (M14 melanoma): 29.4 µM
TGI (MALME-3M melanoma): 26.2 µM
TGI (MCF7 breast): 29.3 µM
TGI (MDA-MB-231 breast): 29.7 µM
TGI (MDA-MB-435): 30.5 µM
TGI (MDA-N): 25.3 µM
TGI (MOLT-4 leukemia): 28 µM
TGI (NCI-H226 lung): 29.9 µM
TGI (NCI-H23 lung): 29.6 µM
TGI (NCI-H460 lung): 30.7 µM
TGI (NCI/ADR-RES ovarian): 28 µM
TGI (OVCAR-3 ovarian): 29.9 µM
TGI (OVCAR-4 ovarian): 49.6 µM
TGI (OVCAR-5 ovarian): 34.9 µM
TGI (OVCAR-8 ovarian): 34.4 µM
TGI (PC-3 prostate): 25.7 µM
TGI (RXF 393 renal): 30.8 µM
TGI (SF-295 CNS): 25.8 µM
TGI (SF-539 CNS): 31.6 µM
TGI (SK-MEL-2 melanoma): 27.3 µM
TGI (SK-MEL-28 melanoma): 29.8 µM
TGI (SK-MEL-5 melanoma): 27.7 µM
TGI (SK-OV-3 ovarian): 89.2 µM
TGI (SN12C renal): 32.6 µM
TGI (SNB-19 CNS): > 100 µM
TGI (SNB-75 CNS): 48.4 µM
TGI (SR leukemia): 29.1 µM
TGI (SW-620 colon): 30.2 µM
TGI (TK-10 renal): 31.6 µM
TGI (U251 CNS): 29.5 µM
TGI (UACC-257 melanoma): 29.7 µM
TGI (UACC-62 melanoma): 28.2 µM
TGI (UO-31 renal): 30 µM

CC(C)=CCNc1ncnc2c1c(C#N)cn2C1OC(CO)C(O)C1O (centres undefined)
TGI (786-0 renal): > 100 µM
TGI (A498 renal): > 72.6 µM
TGI (A549 NSCLC): > 100 µM
TGI (ACHN renal): > 100 µM
TGI (BT-549 breast): > 100 µM
TGI (CAKI-1 renal): > 100 µM
TGI (CCRF-CEM leukemia): 81.5 µM
TGI (COLO 205 colon): 6.76 µM
TGI (DU-145 prostate): > 100 µM
TGI (EKVX NSCLC): > 100 µM
TGI (HCT-116 colon): > 100 µM
TGI (HCT-15 colon): > 100 µM
TGI (HL-60(TB) leukemia): 67.9 µM
TGI (HOP-62 NSCLC): > 100 µM
TGI (HOP-92 NSCLC): > 100 µM
TGI (HS 578T breast): > 100 µM
TGI (HT29 colon): > 100 µM
TGI (IGROV1 ovarian): > 100 µM
TGI (K-562 leukemia): > 100 µM
TGI (KM12 colon): > 100 µM
TGI (LOX IMVI melanoma): > 100 µM
TGI (M14 melanoma): > 100 µM
TGI (MALME-3M melanoma): > 100 µM
TGI (MDA-MB-231 breast): > 100 µM
TGI (MDA-MB-435): > 100 µM
TGI (MDA-N): > 100 µM
TGI (MOLT-4 leukemia): > 100 µM
TGI (NCI-H226 lung): > 100 µM
TGI (NCI-H23 lung): > 100 µM
TGI (NCI-H460 lung): 33.6 µM
TGI (NCI-H522 lung): > 50.3 µM
TGI (NCI/ADR-RES ovarian): > 100 µM
TGI (OVCAR-3 ovarian): 77.1 µM
TGI (OVCAR-4 ovarian): 23.3 µM
TGI (OVCAR-5 ovarian): > 100 µM
TGI (OVCAR-8 ovarian): > 100 µM
TGI (PC-3 prostate): > 100 µM
TGI (RPMI-8226 leukemia): > 72.9 µM
TGI (RXF 393 renal): > 100 µM
TGI (SF-268 CNS): > 100 µM
TGI (SF-295 CNS): > 100 µM
TGI (SF-539 CNS): > 100 µM
TGI (SK-MEL-2 melanoma): > 100 µM
TGI (SK-MEL-28 melanoma): > 100 µM
TGI (SK-MEL-5 melanoma): > 100 µM
TGI (SK-OV-3 ovarian): > 100 µM
TGI (SN12C renal): > 100 µM
TGI (SNB-19 CNS): > 100 µM
TGI (SNB-75 CNS): > 100 µM
TGI (SR leukemia): > 100 µM
TGI (SW-620 colon): > 100 µM
TGI (TK-10 renal): 24.7 µM
TGI (U251 CNS): > 100 µM
TGI (UACC-257 melanoma): > 100 µM
TGI (UACC-62 melanoma): > 100 µM
TGI (UO-31 renal): > 100 µM
